For this assay, the system named is CEM cells HIV-1 protection, formazan growth assay. Briefly: NCI AIDS Antiviral Assay. To be noted: for IC50: measured here: growth of uninfected CEM cells. Put shortly: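 Five concentrations of each compound were applied to infected and uninfected human CEM cells. Protection from HIV-1 was judged from growth measured with a soluble formazan assay.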

The source made the active and inactive calls.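 How the source made its calls: active means compounds giving half or more protection of infected cells from virus-caused growth loss, again on retest; inactive means the rest.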 Where only a bound is given, the exact number is not on record here.

`O=C(C(Cl)=C(N1CCOCC1)N1CCOCC1)C(Cl)Cl`: the EC50 was above 200 µM and the half-inhibitory concentration (IC50) came out at 112 µM.

For the compound `Cc1[nH]c2ccccc2c1C1=CC(=O)N(c2ccccc2)C1=O`, the EC50 was above 200 µM and the IC50 turned out to be 8.71 µM.

As for `S=C1Cc2[nH]c(=S)sc(=S)c2C(=S)N1`, the EC50 was above 64.6 µM and the concentration for half-maximal inhibition (IC50) stood at 57.5 µM. The matching figures for `O=c1[nH]c2cc3[nH]c4ncccc4c(=O)c3cc2[nH]1`: 148 µM and above 200 µM.

For the compound `CCCCCCCCCCCCCCC(C)CCC(=O)O` (stereo not drawn), the outcome was inactive. As for `O=c1ccc2ccc3occc(=O)c3c2o1`, the EC50 is above 120 µM and the half-inhibitory concentration (IC50) amounted to 102 µM.

For `CCCOP(=O)(OCCC)OC(C(F)(F)F)C(F)(F)F`, the EC50 was above 200 µM and the IC50 is above 200 µM. Regarding `Cc1cc(Cl)c2c(c1)C(=N/O)/C(=C\c1ccco1)O2`, the EC50 is above 200 µM and the IC50 was 10.2 µM. For `C[C@H](CCCN1CCCCC1)[C@H]1CC[C@H]2[C@@H]3CC[C@@H]4C[C@H](O)CC[C@]4(C)[C@H]3CC[C@]12C` the same measures were above 50.1 µM and 1.82 µM.

As to `Cn1c(N)c2c3c(sc2nc1=O)CCCC3`, the 50% effective concentration (EC50) was 77.6 µM and the IC50 is above 100 µM. For `O/N=C1/CCCCCC1NO` (stereo not drawn) the same measures were above 200 µM and above 200 µM. For `Clc1cccc(NC(c2ccccc2)=[N+]2CCCCC2)c1` the same measures were above 200 µM and 30.9 µM. The matching figures for `CC1CN=C(NS(=O)(=O)c2cc(C(=O)Nc3ccc(F)cc3)c(Cl)cc2S)NN1` (stereo not drawn): above 200 µM and 24 µM. With `CC1(C)OC(=O)C(C#N)=C1C[n+]1ccccc1`, the EC50 is above 263 µM and the IC50 was above 263 µM. Consider `COc1ccc(OC)c(C(Nc2ccc3cn[nH]c3c2)P(=O)(c2ccccc2)c2ccccc2)c1` (stereo not drawn), for which the outcome was inactive. As to `COc1ccc(C2c3cc4c(cc3OC(N3CCOCC3)C2C)OCO4)c(OC)c1` (stereo not drawn), the EC50 is above 200 µM and the IC50 turned out to be 3.31 µM. As to `COC(=O)C1=C(C(=O)OC)C2C=CC1C1C(Cl)=C(Cl)C21` (stereo not drawn), the result was inactive.

In the case of `c1ccc(SC(CNCCc2ccco2)c2ccc3c(c2)OCO3)cc1` (stereo not drawn), the EC50 is above 200 µM and the IC50 came to 26.9 µM. For `CS(=O)(=O)OCCN1CCN(C(=O)c2cccc3c(Nc4ccc(S(N)(=O)=O)cc4)c4ccccc4nc23)CC1` the same measures were above 51.3 µM and above 51.3 µM. The matching figures for `CC1=NN(C(=O)c2ccc(Cl)cc2)C(=O)/C1=C/c1cccc([N+](=O)[O-])c1`: above 19.5 µM and above 19.5 µM. As for `Cc1cc(C(C)C)cc(O)c(=O)c1`, the outcome was inactive. Regarding `CC(=O)O[C@]12CCCCCC1C1(O)C(O)CCCC[C@H]12` (stereo partly drawn), the EC50 was above 200 µM and the half-inhibitory concentration (IC50) is above 200 µM. In the case of `COc1ccc(C)cc1-c1cc(Sc2ccccc2)c(-c2cc(C)ccc2OC)o1`, the EC50 was above 53.7 µM and the IC50 is above 53.7 µM. In the case of `O=C1c2ccccc2C(=O)C2(C(c3ccccc3)c3ccccc3)N=NCC12` (stereo not drawn), the EC50 is above 200 µM and the IC50 stood at 105 µM.

With `Cc1ccc(N=C2C(c3ccccc3)=C(SC3=C(c4ccccc4)C(=Nc4ccc(C)cc4)c4ccccc43)c3ccccc32)cc1`, the EC50 is above 200 µM and the half-inhibitory concentration (IC50) came to 174 µM.

`O=C(c1cccc(Cl)c1)c1c(O)c2ccccc2oc1=O`: the result was inactive.

Take `O=C1OCCC12CN(Cc1ccccc1)N=N2` (stereo not drawn): the EC50 is above 200 µM and the IC50 was above 200 µM. Consider `CC1(C)CNC(=O)C2=C(O1)C(=O)OC2`, for which the EC50 was above 1260 µM and the IC50 was above 1260 µM. In the case of `CSc1cnnc2ccccc12`, the EC50 was above 603 µM and the IC50 stood at 263 µM.

Consider `N=C1c2ccccc2C(=O)c2c(NCCNCCO)ccc(O)c21`, for which the EC50 is above 7.76 µM and the IC50 was determined as 0.759 µM. The matching figures for `O=C(c1ccc(Cl)cc1Cl)N(C(=O)N1CCCCC1)c1ccccc1`: above 200 µM and above 200 µM. As for `CCC1=C(OC)c2ncccc2C(=O)C1=O`, the result was inactive. The same measure, in the same setting: then `O/N=C1/CCCC/C1=C/c1ccc(Cl)cc1`, with “inactive”.

For the compound `CN=Cc1ccccc1O.CN=Cc1ccccc1O.[Cu+2]`, the EC50 was above 200 µM and the 50% inhibitory concentration (IC50) stood at 11.2 µM. The matching figures for `CCCCN(S(=O)(=O)c1ccccc1)S(=O)(=O)c1ccccc1`: above 200 µM and above 200 µM. For `O=C1c2ccccc2C(=O)C1(Cl)C1(S(=O)(=O)O)c2ccccc2-c2ccccc21`, the outcome was inactive. Turning to `CC(=O)OC(C)(C)/C=C/C(=O)[C@](C)(O)[C@H]1[C@H](O)C[C@@]2(C)[C@@H]3CC=C4[C@@H](C[C@H](O)C(=O)C4(C)C)[C@]3(CO)C(=O)C[C@]12C`, the EC50 is above 4.37 µM and the half-inhibitory concentration (IC50) was found to be 0.129 µM. The matching figures for `O=C1COc2ccc([N+](=O)[O-])cc2C(=O)C1`: above 200 µM and above 200 µM. As to `NC(N)=NC(N)=Nc1ccc(Sc2ccc(N=C(N)N=C(N)N)cc2)cc1`, the EC50 was above 200 µM.

Take `O=C(O)/C=C/c1ccc([N+](=O)[O-])cc1`: the EC50 was above 97.7 µM and the concentration for half-maximal inhibition (IC50) was above 97.7 µM.

Regarding `COC(NC(=O)Nc1ccc(C)cc1)(C(F)(F)F)C(F)(F)F`, the EC50 is above 200 µM and the IC50 stood at 27.5 µM.

As for `O=C(O)CCC(NC(=O)c1ccc(Nc2nc3ccccc3nc2-c2cccs2)cc1)C(=O)O` (stereo not drawn), the EC50 is above 525 µM and the IC50 is 457 µM. For `CC(=O)Nc1cc(=O)[nH]c2c1CCC2`, the result was inactive. In the case of `O=c1[nH]c(=O)n(CCOc2ccccc2)cc1Nc1ccccc1`, the EC50 is above 200 µM and the IC50 is above 200 µM.

Consider `COCCNC1CCC(=O)c2[nH]c3ccccc3c21` (stereo not drawn), for which the EC50 was above 200 µM and the concentration for half-maximal inhibition (IC50) is above 200 µM. As for `CC1=CC(=O)N2C(OC[C@@H]2c2ccccc2)O1` (stereo partly drawn), the EC50 was above 562 µM and the half-inhibitory concentration (IC50) is above 562 µM. For the compound `O=C(O)c1ccc2c(c1)S(=O)(=O)NC2=O`, the EC50 is above 1100 µM and the IC50 is above 1100 µM. Regarding `CC(C)CCCC(C)[C@H]1CCC2[C@@H]3CCC4Nc5nocc5C[C@]4(C)C3CC[C@@]21C` (stereo partly drawn), the result was inactive. As for `COc1ccc2c(c1OC)C(=O)N/C2=C\c1c(CCN(C)C)cc2c(c1OC)OCO2`, the EC50 was above 200 µM and the IC50 was above 100 µM. The matching figures for `CCN(C)c1nc(N(C)CC)c2nc(N(C)CC)nc(N(C)CC)c2n1`: above 501 µM and 120 µM. On to `CCN(CC)CC(=O)NC1c2ccc(Cl)cc2Oc2c(C)cccc21` (stereo not drawn), for which the EC50 was above 72.4 µM and the 50% inhibitory concentration (IC50) came to 58.9 µM. For `O=C(Nc1nc2ccccc2[nH]1)C(=O)NC12CC3CC(CC(C3)C1)C2`, the result was inactive.

As to `CCC(C)/C(=C\C(=O)O)C(=O)O` (stereo not drawn), the EC50 was above 200 µM and the half-maximal inhibitory concentration (IC50) was above 200 µM. In the case of `O=[N+]([O-])c1ccc([As](=O)(O)O)cc1`, the EC50 was above 200 µM and the IC50 was above 200 µM. Take `O=c1[nH]c2c(cnn2-c2ccccc2)c(=O)n1OS(=O)(=O)c1ccccc1`: the EC50 is above 200 µM and the half-maximal inhibitory concentration (IC50) was above 200 µM.

For orientation: EC50 means the concentration giving half of the maximal effect. As a reminder, the IC50 is the concentration at which inhibition is half-maximal. Higher therefore signals weaker potency.

The record behind these values is PubChem BioAssay AID179 (DTP/NCI, 2004).
